This passage reports IC50 results from US20230339866A1, “Quinazoline compounds and the use thereof in the treatment of cancer” (TROBIO THERAPEUTICS PTY LTD, priority 2020, published 2023).

In assay [1] the test system is A549 (NSCLC). In words: Anti-proliferative activity (Cell-Titre luminescence) against A549 non-small cell lung cancer cells. It counts as cell-based. The note with it: Homo sapiens, A549, 72 h, 72 h exposure, Cell-Titre luminescent reagent. The method, then: (§1) The ability of compounds of the invention to inhibit the proliferation of cancer cells representative of non-small cell lung cancer and ovarian cancer (Table 2), pancreatic cancer, colorectal cancer and prostate cancer (Table 3) was assessed. Briefly, a predetermined number of cells as calculated from cell growth assays for each of the cell lines employed were seeded into their respective culture medium (using ATCC culture parameters—http://www.atcc.org) and cultured for 24 h at 37° C. and 5% CO2 in 96-well culture plates. Once attached, each cell line was then exposed to various concentrations of each respective analogue (30, 10, 3, 1, 0.3 and 0.1 μM), cultured for a further 72 h and exposed to Cell-Titre luminescent reagent (100 μL/well) for a further 30 min. Luminescence was captured using an EnVision multilabel reader and the data for each analogue concentration compared against no treatment control. Cell viability was normalised to control (vehicle alone) and dose response curves, and half maximal effective concentration (EC50) values were determined using Graph Pad Prism 6 (nonlinear regression sigmoidal dose-response variable slope).

For assay [2], the system named is A2780 (ovarian). In words: Anti-proliferative activity (Cell-Titre luminescence) against A2780 ovarian cancer cells. It counts as cell-based. The note with it: Homo sapiens, A2780, 72 h, 72 h exposure, Cell-Titre luminescent reagent. The protocol: as §1

SMILES strings stand for the structures.

With `COc1ccc(Nc2nc(NCCN3CCN(C)CC3)c3ccccc3n2)cc1` [Compound 44, N^2-(4-methoxyphenyl)-N^4-(2-(4-methylpiperazin-1-yl)ethyl)quinazoline-2,4-diamine], the IC50 (in general, the concentration that inhibits the measured activity by half) in assay [1] is 5.8 µM; in assay [2] it was 2.49 µM.
Turning to `CN1CCN(CCNc2nc(NCc3ccccc3)nc3ccccc23)CC1` [Compound 45, N^2-benzyl-N^4-(2-(4-methylpiperazin-1-yl)ethyl)quinazoline-2,4-diamine], the IC50 in assay [1] is 18.4 µM; in assay [2], 8.55 µM.
In the same order, the values of `CN1CCN(CCNc2nc(NCc3cccc(C(F)(F)F)c3)nc3ccccc23)CC1` [Compound 46, N^4-(2-(4-methylpiperazin-1-yl)ethyl)-N^2-(3-(trifluoromethyl)benzyl)quinazoline-2,4-diamine] are 3.04 µM and 2.34 µM.
On the same counts, the results for `CN1CCN(CCNc2nc(NCc3ccc(C(F)(F)F)cc3)nc3ccccc23)CC1` [Compound 47, N^4-(2-(4-methylpiperazin-1-yl)ethyl)-N^2-(4-(trifluoromethyl)benzyl)quinazoline-2,4-diamine] are 3.28 µM and 6.13 µM.
In the same order, the values of `COc1cccc(CNc2nc(NCCN3CCN(C)CC3)c3ccccc3n2)c1` [Compound 48, N^2-(3-methoxybenzyl)-N^4-(2-(4-methylpiperazin-1-yl)ethyl)quinazoline-2,4-diamine] are 7.4 µM and 4.52 µM.
In the case of `COc1ccc(CNc2nc(NCCN3CCN(C)CC3)c3ccccc3n2)cc1` [Compound 49, N^2-(4-methoxybenzyl)-N^4-(2-(4-methylpiperazin-1-yl)ethyl)quinazoline-2,4-diamine], the values for the IC50 in assay [1] and in assay [2] were 8.77 µM and 6.87 µM, respectively.
In the same order, the values of `CN1CCN(CCNc2nc(NCCc3ccccc3)nc3ccccc23)CC1` [Compound 50, N^4-(2-(4-methylpiperazin-1-yl)ethyl)-N^2-phenethylquinazoline-2,4-diamine] are 5.3 µM and 7.68 µM.
Consider `CN1CCN(CCNc2nc(NCCc3ccc(C(F)(F)F)cc3)nc3ccccc23)CC1` [Compound 52, N^4-(2-(4-methylpiperazin-1-yl)ethyl)-N^2-(4-(trifluoromethyl)phenethyl)quinazoline-2,4-diamine], for which the IC50 in assay [1] stood at 5.6 µM; in assay [2], 1.19 µM.
On the same counts, the results for `COc1cccc(CCNc2nc(NCCN3CCN(C)CC3)c3ccccc3n2)c1` [Compound 53, N^2-(3-methoxyphenethyl)-N^4-(2-(4-methylpiperazin-1-yl)ethyl)quinazoline-2,4-diamine] are > 30 µM and 18.2 µM.
As for `CCc1ccc(Nc2nc(NCCN3CCN(C)CC3)c3ccccc3n2)cc1` [Compound 55, N^2-(4-ethylphenyl)-N^4-(2-(4-methylpiperazin-1-yl)ethyl)quinazoline-2,4-diamine], the IC50 in assay [1] came out at 4.45 µM; in assay [2], 7.16 µM.
On the same counts, the results for `CN1CCN(CCNc2nc(NCCc3cccc(F)c3)nc3ccccc23)CC1` [Compound 58, N^2-(3-fluorophenethyl)-N^4-(2-(4-methylpiperazin-1-yl)ethyl)quinazoline-2,4-diamine] are 5.85 µM and 6.22 µM.
`CN1CCN(CCNc2nc(NCCc3ccc(F)cc3)nc3ccccc23)CC1` [Compound 59, N^2-(4-fluorophenethyl)-N^4-(2-(4-methylpiperazin-1-yl)ethyl)quinazoline-2,4-diamine]: the figures for the IC50 in assay [1] and in assay [2] were 3.7 µM and 5.54 µM, respectively.
As to `COc1ccc(Nc2nc(NCCN(C)C)c3ccccc3n2)cc1` [Compound 61, N^4-(2-(dimethylamino)ethyl)-N^2-(4-methoxyphenyl)quinazoline-2,4-diamine], the IC50 in assay [1] was found to be 11.9 µM; in assay [2], 7.09 µM.
`CCc1ccc(Nc2nc(NCCN(C)C)c3ccccc3n2)cc1` [Compound 62, N^4-(2-(dimethylamino)ethyl)-N^2-(4-ethylphenyl)quinazoline-2,4-diamine]: the values for the IC50 in assay [1] and in assay [2] were 7.5 µM and 13.1 µM, respectively.
